# Entries after “also recorded” stand apart in the source; their conditions may differ.
# Experiments:
# [1] = tested on: ptD primary ovarian cancer cells; experiment: MTT assay in ptD cells; assay type: cell-based, human; settings: for dose of single agent giving virtually complete cell death (95% cell death) / IC50: ptD, 72 h; for dose of single agent giving virtually complete cell death (95% cell death): agent alone; for IC50: Homo sapiens
# Method: Drug responses were evaluated in the well-established OVCAR5 cancer cell line and a variety of primary ovarian cancer cells lines derived from patient ascites (ptD, ptH, ptG, PKD1, PKD2).
# [2] = tested on: OVCAR5 cells; experiment: MTT assay in OVCAR5 cells; assay type: cell-based, human; settings: for dose of single agent giving virtually complete cell death (95% cell death): 72 h, agent alone; for IC50: Homo sapiens, OVCAR-5, 72 h
# Method: (§1) Drug responses were evaluated in the well-established OVCAR5 cancer cell line and a variety of primary ovarian cancer cells lines derived from patient ascites ([…], PKD1, PKD2).
# [3] = tested on: c-JUN phosphorylation (canonical downstream target of JNKs); experiment: western blot of c-JUN phosphorylation in ptD cells; assay type: cell-based, human; settings: 25 uM, 30 min
# [4] = target: T1, MISR2 (MISRII) (Rattus norvegicus, UniProt Q62893); experiment: rat fetal urogenital ridge (UGR) assay; settings: UGR culture, 72 h
# T1 construct: UGR tissue is dissected from 14.5d female fetal rats and cultured ex-vivo; from tissue; host or cells: fetal rat urogenital ridge (14.5d female), organ culture
# T1 sequence (Q62893 18-557): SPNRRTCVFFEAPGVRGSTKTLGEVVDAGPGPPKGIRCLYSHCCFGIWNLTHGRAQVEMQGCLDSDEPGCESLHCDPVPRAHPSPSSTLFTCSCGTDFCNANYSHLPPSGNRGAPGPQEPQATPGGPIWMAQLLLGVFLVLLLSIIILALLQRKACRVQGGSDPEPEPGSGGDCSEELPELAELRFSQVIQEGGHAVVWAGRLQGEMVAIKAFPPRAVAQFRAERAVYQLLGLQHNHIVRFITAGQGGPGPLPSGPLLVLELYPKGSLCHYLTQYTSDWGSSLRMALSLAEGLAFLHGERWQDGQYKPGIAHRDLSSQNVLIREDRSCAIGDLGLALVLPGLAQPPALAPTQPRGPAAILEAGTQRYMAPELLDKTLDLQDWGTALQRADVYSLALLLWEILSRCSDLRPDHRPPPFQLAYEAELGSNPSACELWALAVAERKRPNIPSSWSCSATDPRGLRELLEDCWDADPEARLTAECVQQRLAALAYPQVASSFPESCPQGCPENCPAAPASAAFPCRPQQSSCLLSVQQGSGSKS
# Method: UGR tissue is dissected from 14.5d female fetal rats and cultured ex-vivo on a semi solid substrate (agarose droplet on a metal grid) suspended over media at the air/media interface. The UGR from each female is cultured for 72 h in presence of the drugs while the contralateral ridge is cultured in vehicle (DMSO) as a control. The regression of the Mullerian duct, which is specific to MIS activity, is measured in sections of UGR after fixing and embedding.
# [5] = tested on: OVCAR5 and primary ovarian cancer cell lines (ptD, ptH, ptG, PKD1, PKD2); experiment: MTT assay in a panel of ovarian cancer cell lines; assay type: cell-based, human; settings: 72 h, all cell lines
# Method: as §1
# [6] = tested on: ptD cells; experiment: cell cycle distribution by PI staining and flow cytometry in ptD cells; assay type: cell-based, human
# Source text: (§2) This pattern is observed in both cells lines, but is particularly pronounced in OVCAR5 (FIG. 5C).
# [7] = tested on: OVCAR5 cells; experiment: cell cycle distribution by PI staining and flow cytometry in OVCAR5 cells; assay type: cell-based, human; settings: OVCAR5 synchronized by serum deprivation 24 h, 25 uM with 10% serum
# Source text: as §2
# [8] = tested on: CDKi P21; experiment: qPCR expression of CDKi P21 in ptD cells; assay type: cell-based, human; settings: 25 μM, 2-48 h
# Source text: (§3) To decipher the mechanism of cell cycle block observed by treatment with M-SP600, the inventors next assessed the expression of the kinases CDKi P15 and P21 by qPCR, since these kinases control G1/S transition.
# [9] = tested on: CDKi P15; experiment: qPCR expression of CDKi P15; assay type: cell-based
# Source text: as §3
# [10] = tested on: PtD cells xenografted in the flank of nude mice; experiment: PtD xenograft in nude mice; assay type: in vivo; settings: 30 mg/kg/day for 3 consecutive days
# [11] = tested on: OVCAR5 cells xenografted in the flank of nude mice; experiment: OVCAR5 xenograft in nude mice; assay type: in vivo, mouse; settings: 60 mg/kg/day, 5 days on 2 days off for 3 weeks
# Method: A longer experiment was subsequently carried out using OVCAR5 cells xenografted at 1×10^6 in the flank of nude mice, which were treated 72 h later in a 5 days on 2 days off schedule for 3 weeks at a dose of 60 mg/kg/day using 3 groups of 5 mice randomly selected.
# [12] = tested on: 300 kinases; settings: 0.5 μM inhibitor, 10 uM ATP; cited from earlier work
# [13] = tested on: JNKs; settings: Bennet et al. 2001; cited from earlier work
compound,measurement,setting,value
"COc1cccc2c1C(=O)c1c(O)c3c(c(O)c1C2=O)C[C@@](O)(C(=O)CO)C[C@@H]3O[C@H]1C[C@H](N)[C@H](O)[C@H](C)O1 [DOX, doxorubicin, reference compound]",dose of single agent giving virtually complete cell death (95% cell death),[1],greater than 300 μM
same,dose of single agent giving virtually complete cell death (95% cell death),[2],300 µM
"CCOc1nc(NC(=O)Cc2cc(OC)ccc2OC)cc(N)c1C#N [JNK inhibitor VIII, reference compound]",c-JUN phosphorylation,[3],inhibited
"Cn1nc2c3c(cccc31)C(=O)c1ccccc1-2 [M-SP600, N1-methyl-1,9-pyrazolothrone]",size of Wolffian ducts,[4],smaller Wolffian ducts
same,IC50,[1],6.25 µM
same,dose of single agent giving virtually complete cell death (95% cell death),[1],50 µM
same,dose of single agent giving virtually complete cell death (95% cell death),[2],50 µM
same,IC50,[2],12.5 µM
same,inhibition of cancer cell growth,[5],inhibited
same,cell cycle distribution,"[6]; asynchronous ptD cells, 25 uM, 24 h",marked reduction in cells in S phase accompanied by an accumulation of cells particularly in G1 and less so in G2; also recorded: more pronounced with M-SP600 than SP600
same,cell cycle block,"[6]; ptD synchronized by serum deprivation 24 h, 25 uM with 10% serum",causes a G1 block
same,cell cycle block,[7],causes a G1 block
same,expression of P21 by qPCR,[8],induce P21; also recorded: greater for the M-SP600 than the SP600
same,expression of P15,[9],upregulation of P21 and P15
same,tolerability,[10],well tolerated
same,tumor growth,[10]; one week after implant,strong trend emerged of inhibition of tumor growth
same,tumor growth,[11]; versus control at day 15,significantly inhibited
same,tumor growth,"[11]; versus control at day 15, listed as MSP600, 60 mg/kg/day",significantly lower than control
same,number of kinases inhibited at more than 50%,[12],4
same,inhibition of JNKs,[13],does not inhibit JNKs
"Oc1c2ccccc2c2c3c(cccc13)N=N2 [SP600, 1,9-pyrazoloathrone, reference compound]",IC50,[1],6.25 µM
same,IC50,[2],12.5 µM
same,tolerability,[10],well tolerated
CCCS(=O)(=O)Nc1ccc(F)c(C(=O)c2c[nH]c3ncc(-c4ccc(Cl)cc4)cc23)c1F [Vemurafinib],sensitivity of cells to the drug,[1]; ptD cells with BRAF V600E mutation,exquisitely sensitive
